Patent US20090042993A1, “IDENTIFICATION OF NOVEL POST-TRANSLATIONAL PROTEIN MODIFICATIONS” (priority 2007, published 2009)

System: lysine deacetylase activity in Golgi vesicles
Assay: Membrane deacetylase activity, in vitro deacetylation of acetylated BACE1-myc by Golgi vesicles
Format: biochemical, Chinese Hamster
Conditions: vesicles from ceramide-treated cells, 0.2% Triton X-100, 30° C.
Source text: Intact vesicles from the endoplasmic reticulum (ER) and the Golgi apparatus were purified on a 10-34% Iodixanol (OptiPrep; Axis-Shield, Norway) continuous gradient as described (Puglielli et al., 2001, Nat. Cell Biol. 3: 905-912). The complete migration of subcellular markers in a typical gradient is shown in Costantini et al., 2006, EMBO J. 25: 1997-2006; Puglielli et al., 2001, Nat. Cell Biol. 3: 905-912. Fractions enriched in ER and Golgi markers (also called ER or Golgi vesicles herein) were separated, pooled together, and resuspended in isotonic/cryogenic buffer (0.25 M sucrose and 10 mM Tris-HCl, pH 7.4) in the presence of protease inhibitors (Roche). Latency of ER and Golgi vesicles was determined with the glucose-6-phosphatase (Clairmont et al., 1992, J. Biol. Chem. 267: 3983-3900) and the sialyl-transferase (Puglielli and Hirschberg, 1999, J. Biol. Chem. 274: 35596-35600) methods, respectively. […]
BACE1 was eluted by lowering the pH to 2.0 and recovered by centrifuging at 3000 rpm for 2 min. […] BACE1 was then immunoprecipitated and counted on a liquid scintillation counter. […]
FIG. 6 illustrates how acetyltransferase and deacetylase activities exist in the lumen of ER and Golgi apparatus, respectively. […] The reaction was stopped by lowering the temperature; BACE1 was then purified again and analyzed on a scintillation liquid counter. […]

## CCCCCCCCCCCCC/C=C/[C@@H](O)[C@H](CO)NC(=O)CCCCC [ceramide, C6-ceramide]
  in vitro deacetylation of BACE1 by Golgi vesicles: increased deacetylation
